From patent US10689369B2, “Substituted indazole compounds as RORgammaT inhibitors and uses thereof” (Merck Sharp & Dohme Corp., priority 2015, dated 2020)

Key:
PPARγ = PPARγ (Homo sapiens (Human), UniProt P37231); experiment: Nuclear hormone receptor selectivity assay (GAL4-NHR-LBD luciferase reporter, HEK293); format: cell-based
Experimental: In the assay system used, an activated GAL4-nuclear hormone receptor (NHR) fusion construct binds to an upstream activation sequence (UAS) and drives a luciferase reporter gene. […]
HEK293 cells were transfected with GAL4-NHR-LBD construct (pcDNA3.1neo) and the pGL4.31 GAL4-luciferase reporter construct (Promega) and incubated overnight at 37° C. and 5% CO2. After 16-24 hours, cells were harvested and plated at 20 μL (10,000 cells)/well in tissue-culture treated 384 well plate. […] Next, plates are spun briefly and incubated overnight at 37° C. and 5% CO2. […] In agonist mode, test compound was incubated directly with the cells. For receptors that are not constitutively active, a known agonist is also tested as a positive control.
After 16-24 hours, luciferase activity was measured. Plates and luciferase reagent (e.g. One-Glo® or Dual Glo®; Promega, Madison, Wis.) were brought to room temperature. Next, a 25 μL aliquot of luciferase reagent was added to each well. Plates were spun down briefly and incubated at room temperature for 10 minutes. The luciferase signal was measured on an Envision plate reader (Perkin Elmer) set to the ultra-sensitive luminescence setting.

[1] = tested on: murine collagen-induced arthritis model; experiment: Murine collagen-induced arthritis model; format: in vivo, DBA/1J mice; conditions: oral 3, 10 or 30 mg/kg twice daily; FIG. 4
Experimental: Female DBA/1J mice (Jackson Laboratories, 7-8 weeks old) were received and allowed to acclimate for about one week. On the day of immunization, an emulsion was freshly prepared by homogenizing equal volumes of Complete Freund's Adjuvant (CFA, Chondrex #7001) and a collagen type-2 solution (bovine source, Chondrex #20022) using a tissue homogenizer, on ice. A volume of 0.1 mL of this emulsion was injected subcutaneously into the base of the tail of each mouse, which was lightly anesthetized with isoflurane. Mice recovered from anesthesia were allowed food and water ad libitum.
Eighteen days after immunization, the mice were injected intraperitoneally with 40 μg of lipopolysaccaride (LPS, Sigma # L4005) in 0.2 mL saline, in order to help synchronize the disease progression in all animals. Seven days after LPS injection, the mice were assessed for knee joint swelling by measurement of each knee joint using digital calipers and computing total joint circumference. The total knee joint circumference of the 4 knee joints was then used to randomize mice into treatment groups of equal average circumference.
This dosing continued twice daily at 8- and 16-hour intervals for the duration of the study. As a positive control, one group of mice received 25 mg/kg Jak inhibitor (JAKi) tofacitinib once per day. Joints were measured 2-3 times per week.

Sequence of PPARγ (P37231 238-503, species assumed): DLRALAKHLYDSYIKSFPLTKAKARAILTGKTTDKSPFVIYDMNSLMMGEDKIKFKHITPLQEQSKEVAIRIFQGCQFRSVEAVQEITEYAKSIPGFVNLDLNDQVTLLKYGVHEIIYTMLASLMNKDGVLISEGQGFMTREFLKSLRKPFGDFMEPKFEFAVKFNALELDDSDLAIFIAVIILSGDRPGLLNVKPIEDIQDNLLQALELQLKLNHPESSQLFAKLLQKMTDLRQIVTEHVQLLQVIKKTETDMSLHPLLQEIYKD

Agonist Mode, kind of agonism (PPARγ): (partial agonist)
Structure (SMILES): O=C(O)[C@@H]1CC=C(c2nn(C(=O)c3c(Cl)cccc3C3(C(F)(F)F)CC3)c3c2CC[C@@H](C(=O)N2CCC4(COC4)C2)C3)CC1 [Test Compound]
total joint circumference [1]: dose-dependent decrease in total joint circumference
